pKd: −log10 of the molar value. Several values for one entry are separate records, joined by “and”; a condition that tells them apart may be missing. Equal values may be shown once.
Experiments:
S1P1 = S1P1 (Homo sapiens, UniProt P21453); details: Lee et al., Science (1998); read-out: KD for S1P/S1P1 binding; cited from earlier work
HUVEC [1] = experiment: Scrape wound migration assay in platelet poor plasma or low serum medium; assay type: cell-based, human; details: for number of cells in the scrape wound versus plasma alone: no flow
Procedure: The plasma was passed through a 0.22 μm PVDF syringe filter. Plasma was aliquoted and stored at −20° C. VEGF concentration was measured with a sandwich ELISA kit (Quantikine Human VEGF kit, R&D Systems, Minneapolis, Minn.). The concentration of VEGF was measured in plasma samples from three different donors.
After rinsing with D-PBS, LSM or plasma containing the appropriate stimulants were added to the cells. […] Cells were manually counted using ImagePro Express software (Media Cybernetics, Silver Spring, Md.).
A 2.54 cm diameter Teflon disk was mounted onto the spindle of each motor so that the bottom of the disk was 0.5 cm above the cell monolayer. A total volume of 6 mL of medium was added per well. The motors were driven using a 1.5 V power source resulting in a rotation rate of 150±5 rad/s. […] Cell densities were counted at four locations, each between 0.8 and 1.2 cm away from the center of the well.

[2] = test system: Human aortic endothelial cells; experiment: Single cell tracking on RGD/PEG-OVS/albumin hydrogels under fluid shear stress; assay type: cell-based; details: for endothelial cell migration speed: 100 nM S1P
Procedure: Human aortic endothelial cells seeded onto RGD/PEG-OVS/albumin hydrogels at 1000-2000 cells/cm^2 were tracked under 20 dynes/cm^2 fluid shear stress in HEPES-buffered low serum medium (HEPES-LSM; MCDB 131 with 0.1% FBS, 1% ABAM, […] HEPES, pH 7.4) containing 0.4% FAF-BSA for 12 h.
Time lapse microscopy images were obtained every 2 min for 12 h of endothelial cell migration on the surface of RGD containing PEG hydrogels. The percent of cells remaining on the gels during the course of the experiment was recorded for each RGD concentration. The projected cell areas of all cells were determined by manually outlining the cells after 3 h under 20 dyne/cm^2 shear stress. Single endothelial cells were manually tracked for 12 h to obtain XY-coordinate data for the center of each cell. Coordinate data from every six minutes (Δt=6 min) for all cells in each experiment were saved as variables for analysis in MATLAB (The MathWorks, Natick, Mass.). At each time point i, ti=iΔt, the mean squared displacement was calculated using the overlapping interval method. The speed of each individual was calculated by dividing the root mean-square displacement for a single time interval by the tracking interval (6 min). Each cell's persistence time was determined by fitting the persistent random walk model given by Equation 1: <d^2(t)>=2S^2P[t−P(1−e^−t/P)] [1] using the calculated speed by nonlinear least squares regression analysis as previously described (Dunn 1983; Othmer, Dunbar and Alt 1988; Harms et al. 2005). Speed simply represents the total path length of a cell over time. Persistence time represents the time period between changes in the direction of movement of more than 60°. Path length is calculated as the product of speed and persistence time. Cell dispersion is the product of speed squared and persistence time. Cell areas were obtained by manually tracing cells. All data was analyzed by ANOVA Scheffe post hoc. Endothelial Response to Linear RGD Concentration—Cell Attachment Strength

HAEC = experiment: Individual cell migration of HAEC in plasma; assay type: cell-based, human
Procedure: Individual Cell Migration of HAEC—Passage 6 HAEC were subcultured and incubated in growth medium for 3 days and then were serum-starved for 12 h. HAEC cell densities were less than 100 cell/mm^2 so that cell-cell contacts were unlikely during the duration of the experiment. Any cell that contacted another cell was excluded from data analysis. Plasma was buffered with 20 mM HEPES, pH 7.4, and added to the well. Time-lapse microscopy was used to track the cells every 4 min for 12 h with a 10× objective. The migration speed of individual cells was analyzed using ImageJ software (NIH).

HUVEC [3] = experiment: Time-lapse microscopy of endothelial cell migration on PEG-OVS/albumin/RGD hydrogels; assay type: cell-based, human
Procedure: Time-lapse microscopy was used to quantify endothelial cell migration speeds on PEGOVS/albumin hydrogels containing RGD peptide and preloaded with S1P. RGD peptide was added to the PEG hydrogels to promote endothelial cell adhesion and spreading on the materials. PEG-OVS (3.4 mg in 20 μL) was reacted for 30 min with acetyl-GCGYGRGDSPG-NH2 peptide [SEQ ID NO. 5], to attach the peptide to 1/20 of the vinyl sulfone groups (2.78 mM RGD peptide in the final hydrogel). The PEG hydrogels were crosslinked by reacting PEG-OVS with albumin (5.2 mg in 30 μL) premixed with S1P (5 nmol) to give a final concentration of 100 μM S1P within the crosslinked hydrogel. The resulting solution (50 μL) was pipetted into a 24-well plate and incubated at 37° C. for 24 h to allow crosslinking. HUVEC from passage 5-7 were seeded onto the gels at a concentration of 1000 cells/cm^2. After allowing the cells to spread for 6 h in complete growth medium, HEPES-buffered low serum medium (MCDB 131 with 0.1% FBS, 1% ABAM, […] HEPES, pH 7.4) containing 0.4% FAF-BSA was added to the cells. The cells were tracked using time-lapse microscopy for 12 h, recording images every two minutes. Individual cell migration speeds were analyzed manually using ImageJ to trace the path of each cell over time. […]

[4] = test system: chorioallantoic membrane (CAM); experiment: Chick chorioallantoic membrane (CAM) angiogenesis assay; assay type: in vivo, chicken; details: 50 ng spotted on Thermanox coverslip, two days
Procedure: Embryonated chicken eggs were incubated blunt-end up in a 37° C. incubator. At embryonal day 6, the top of the egg was cracked and removed using tweezers to create a 1.5 cm diameter opening. The inner shell membrane was removed, exposing the CAM. A 20 μL PEG hydrogel was then placed onto the CAM. As controls, 50 ng bFGF or 50 ng S1P were spotted onto small pieces of Thermanox coverslips (Nunc), air dried and placed onto the CAM. The eggs were sealed with parafilm and returned to the incubator. After two days of incubation, the eggs were reopened and the degree of angiogenesis was visually assessed.

plasma lipoproteins = details: in blood; cited from earlier work
S1P1 mRNA = experiment: Quantitative real time RT-PCR of S1P1 mRNA; assay type: cell-based, human; details: 10 ng/mL VEGF; HUVEC cultured in plasma; 24 h
Description: Quantitative Real Time Reverse Transcription PCR-In experiments with fluid flow, cell lysates were harvested only in the region of relevant shear stress (0.8-1.2 cm from the center of the well). For conditions without fluid flow, cell lysates were collected from the entire well. Total cell RNA was isolated using an RNeasy kit (Qiagen). Amplification of an 81-bp fragment of S1P1 using primers (5'-[…] NO:7] and 5'-[…] Inc, Coralville, Iowa) and probe (S1P1 Probe: [NT] ID NO:9], IDT Inc) was performed using the Quantitect qRT-PCR kit (Qiagen). The amount of S1P1 or β-Actin RNA was quantified by comparing data to a standard curve generated using the Taqman human endogenous β-actin control kit (Applied Biosystems). The β-actin control kit contains 333 copies of β-actin DNA per ng of total RNA. Knockdown of S1P1 with siRNA-Passage 3 HUVEC at 30-50% confluence were transfected with 100 nM siRNA targeting S1P1 (Silencer validated siRNA against S1P1, Ambion, Austin, Tex.) in antibiotic-free growth medium using Lipofectamine-2000 (Invitrogen). […] At 48 h, cells were incubated with LSM for 12 h. A negative control (Ambion, Silencer Negative Control #2) was used to test for non-specific effects on gene expression or cell survival. Quantitative real-time RT-PCR was used to determine the extent of S1P1 receptor mRNA knockdown 48 h after transfection.

[5] = S1P 100 nM or VEGF 10 ng/mL added to plasma
[6] = S1P at 0.69 mM cyclic RGD vs 0.52 and 1.38 mM cyclic RGD without S1P
[7] = addition of 100 nM S1P, linear RGD

Sequence of S1P1 (P21453 whole entry, species assumed): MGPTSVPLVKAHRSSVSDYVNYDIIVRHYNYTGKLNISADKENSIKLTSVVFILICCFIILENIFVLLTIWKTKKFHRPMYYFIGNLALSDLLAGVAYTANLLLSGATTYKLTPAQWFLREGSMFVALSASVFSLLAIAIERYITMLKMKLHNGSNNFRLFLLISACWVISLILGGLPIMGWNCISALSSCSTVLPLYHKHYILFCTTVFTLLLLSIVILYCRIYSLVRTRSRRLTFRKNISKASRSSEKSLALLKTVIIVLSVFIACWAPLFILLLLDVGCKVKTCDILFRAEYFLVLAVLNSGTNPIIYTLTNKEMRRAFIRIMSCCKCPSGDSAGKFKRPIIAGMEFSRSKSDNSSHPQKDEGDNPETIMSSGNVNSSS

In the case of `CCCCCCCCCCCCC/C=C/[C@@H](O)[C@@H](N)COP(=O)(O)O` [S1P, Sphingosine 1-phosphate], the pKd (S1P1) is listed as ~8.10 and 8.10, the “cell densities outside the scrape wound area between S1P levels” value (HUVEC [1]; 0, 200, 500, and 1000 nM exogenous S1P at each time point) is listed as “no significant differences” and the “number of endothelial cells in a scrape wound versus LSM alone” value (HUVEC [1]; 100 nM S1P in LSM, 24 h) is listed as “increased the number of endothelial cells”. For the same molecule, the “number of cells in the scrape wound” value (HUVEC [1]; 100 nM S1P in plasma, fluid flow) was “did not significantly increase”, the “number of cells in the scrape wound versus plasma alone” value (HUVEC [1]; 200 nM and 500 nM exogenous S1P, plasma, 24 h) was “statistically different from plasma alone” and the “migration into the wound area versus plasma alone” value (HUVEC [1]; 200 nM exogenous S1P, fluid flow, 48 h) was “significantly different from plasma alone”. The “number of cells in the scrape wound versus plasma alone” value (HUVEC [1]; 200 nM exogenous S1P, plasma, 48 h) was “significantly higher than plasma alone”, the “cell density outside the scrape wound at 48 h versus 0 and 24 h” value (HUVEC [1]; 1000 nM exogenous S1P in static culture) was “significantly lower cell density” and the “number of cells in the wound area versus plasma alone” value (HUVEC [1]; 200, 500, or 1000 nM S1P in plasma, fluid flow, 24 h) was “significant increases”. For the same molecule, the “number of cells in the scrape wound versus plasma alone” value (HUVEC [1]; [5]) was “no differences”, the “exogenous S1P concentration with the highest number of cells within the scrape wound” value (HUVEC [1]; plasma, without fluid flow, 100, 200, 500, 1000 nM tested) was 200 nM and the persistence time ([2]; 100 nM S1P compared to no S1P, cyclic RGD) was “not significantly changed”. The “endothelial cell migration speed” value ([2]; cyclic RGD hydrogels, particularly higher concentrations) was “significant increase in endothelial cell migration speed”, the “endothelial cell migration speed” value ([2]; highest linear RGD concentrations) was “more than doubled” and the projected cell area ([2]; S1P addition, cyclic RGD, after 3 h of shear stress) was “No clear effect”. For the same molecule, the cell dispersion [2, 6] was “statistically greater”, the path length [2, 6] was “statistically greater” and the cell dispersion [2, 7] was “not significant”. For the same molecule, the path length [2, 7] was “not significant”, the persistence time [2, 7] was “not clearly affected” and the “mean cell speed versus plasma alone” value (HAEC; 100 nM S1P added to static plasma) was “no difference”. The “mean cell speed versus plasma alone” value (HAEC; 500 and 1000 nM exogenous S1P) was “did not lead to a significant increase”, the “mean cell speed versus plasma alone” value (HAEC; S1P in plasma increased by 200 nM, p=0.023) was “significantly increased” and the “mean migration speed of HUVEC” value (HUVEC [3]; S1P delivered from preloaded PEG/albumin/RGD hydrogel (100 μM S1P in gel), without S1P 19.2±10.1) was 43.8±15.7 μm/h. The “mean migration speed of HUVEC” value (HUVEC [3]; culture medium containing 100 nM S1P, on PEG/albumin/RGD hydrogel) was 30.2±11.8 μm/h, the angiogenic response [4] was “strong angiogenic responses” and the “circulating S1P bound by HDL” value (plasma lipoproteins) was “about 55%”. For the same molecule, the “circulating S1P bound by other lipoproteins” value (plasma lipoproteins) was “about 10%”.
With VEGF the “S1P1 mRNA concentration versus plasma alone” value (S1P1 mRNA) was “statistically significant increase” and the “number of cells in the scrape wound versus plasma alone” value (HUVEC [1]; [5]) was “no differences”.

Reference: patent publication US8790678B2, “Biomaterials having nanoscale layers and coatings” (Washington University, priority 2006, dated 2014)
